Assay results taken from patent US11440970B2, “Nicotine-binding antibodies” (priority 2017, dated 2022).
Like-named read-outs stand apart in the source and are kept apart here.

Key:
[1] = Non-GLP 4-week repeated high-dose toxicology study; type: in vivo; conditions: nicotine 1 mg/kg/day s.c. infusion for 28d; rats
Experimental: 8D1-IgG4 was dosed i.v. once weekly at 200 mg/kg.
Assessment of toxicity was based on mortality, clinical observations, and body weight during the course of the 28-day study, and at the end of study organ weights, gross anatomic pathology, hematology, serum clinical chemistry, and coagulation was performed. Histopathology of selected tissues (heart, liver, lung, kidney, spleen, skeletal muscle, brain, colon, stomach, ovary, and testis) is pending. Tissues were fixed immediately in formalin, and processed for embedding in paraffin, staining with H&E, and review by a veterinary pathologist.

[2] = rats; cited from earlier work
[3] = mice; cited from earlier work
[4] = cited from earlier work

SMILES: CN1CCC[C@H]1c1cccnc1 [nicotine]
- hematology finding in animals that received nicotine [1]: slight polychromasia
- LD50 [2]: 50 mg/kg
- LD50 [3]: 3 mg/kg
- lethal dose (may be as high as) ([4]; human adult): 1.0 to 7.1 mg/kg
- lethal dose (may be as high as) ([4]; in vivo): ≥ 500 mg
